pIC50, pKi: −log10 of the molar value.
Tests used:
Namalwa (Lymphoma) = assay: Proliferation of Namalwa; type: cell-based
Method: (§1) The diterpenoid compounds were tested in A549, a non-small cell lung cancer cell line harboring a K-Ras activating mutation. Briefly, A549 cells at a density of 1,000 cells/well were seeded in 96-well plates and incubated at 37° C. for 24 hours. A series of different concentrations of compound stocks (500×) were prepared by 3-fold serial dilution in DMSO. These compounds were further diluted in culture media and then added to cells so that the final DMSO concentration was not exceeding 0.25%. After 96 hours of incubation, 50 μL of CellTiter Glo reagent (Promega) was added to each well and luminescence was measured after 10 minutes using EnVision (PerkinElmer). Luminescence from cells treated with DMSO alone was set as Max and % of inhibition was calculated as follows: Inhibition %=(Max-Sample value)/Max×100. Data was analyzed using XL-fit software (ID Business Solutions Ltd.) and IC50, relative IC50, and % of top inhibition was calculated. Some of the compounds in this disclosure were very potent in blocking proliferation of A549 lung cancer cells at low nM range. In addition, potency of inhibiting A549 proliferation correlated well with its binding affinity to PKCs for this series of compounds. In other words, higher affinity binders had stronger inhibitory effects on A549 proliferation. This further support the notion that activation, rather than inhibition, of certain PKC isoforms is required to block proliferation of cancer cells, some of which may harbor K-Ras mutations. This is in sharp contrast to previous literature and common belief that inhibition of PKC is necessary to block cancer cell growth (Kang, 2014, New Journal of Science, 2014:1-36). Data presented here is in agreement with recent findings that many loss-of-function but not gain-of-function mutations of PKC isoforms have been identified in many human cancers (Antal et al., 2015, Cell, 160:489-502).
(§2) The compounds in this disclosure were tested for their potency in blocking proliferation of a few other cancer cells lines, including K-Ras mutant pancreatic cell lines Panc2.13 and KP-4, leukemia cell line HL-60, and lymphoma cell lines Namalwa and Mino. Similar procedures as in Example 67 were followed. Initial cell numbers seeded in 96-well plates were different for different cell lines: 3000 cells/well for Panc2.13; 800-1000 cells/well for KP-4; 5000 cells/well for HL-60; 5000-10000 cells/well for Namalwa and Mino. A ratio of (IC50 of K101)/(IC50 of compound) (data in parenthesis in Table 5) was used to normalize the compound potency from different assay batches to a common comparator K101.

Hela cells = assay: In vitro scratch wound healing assay; type: cell-based; conditions: 24h
Method: Scratch wound healing assay creates a gap by scratching a confluent monolayer of cells to mimic a wound and then measures the ability of cells to fill up the gap (wound) in the presence of DMSO or test compounds. 1.2-1.5×10^5 Hela cells in 1 mL media RPMI-1640 with 10% FBS were seeded in 24-well plates. Cells were starved for overnight in the same media without FBS when cells became confluent. After starvation, a scratch was made in the middle of the well and the plates were washed three times to remove detached cells. DMSO or different concentrations of compounds were diluted and added to the cells. The assay plates were put into Incucyte S3 and scanned with 4× scanner setting regularly. The imaging results were exported and the wound area was analyzed by ImageJ. Wound healing or closure was calculated by the following formula: wound healing %=(wound area at 0h−wound area at 24h)/wound area 0h*100%. Relative wound healing was calculated by dividing wound healing % of compound treatment to that of DMSO*100%.

C1b domain of human PKCε = molecular target: T1, C1b domain of human PKCε (Homo sapiens, UniProt Q02156); assay: biochemical; type: binding; conditions: 3H-PDBu competition
T1 construct: Genes encoding C1b domains of human PKCα, δ, ε, θ, and PKD1 (PKCμ) were synthesized; made in house; host or cells: E. coli BL21(DE3)
T1 sequence (Q02156 242-292 limits assumed): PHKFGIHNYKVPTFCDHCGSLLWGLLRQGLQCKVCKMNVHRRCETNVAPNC
Method: (§3) Compounds described in this disclosure were tested for binding affinity to C1b domain of PKC isoforms. Compound binding affinity to C1b domain of PKC isoforms was derived from competitive binding assay using radioactive tracer ^3H-PDBu and recombinant GST-C1b or full-length of human PKC proteins based on modified procedures from Methods in Molecular Biology, vol.
(§4) Genes encoding C1b domains of human PKCα, δ, ε, θ, and PKD1 (PKCμ) were synthesized and inserted into pGEX-2TK or pGEX-4T1 vectors for expression and production of GST-C1b proteins in E. coli BL21(DE3) via IPTG induction. The target proteins were purified by glutathione sepharose 4B and followed by ion exchange chromatography if needed to achieve purity >70%. Aliquots of the purified proteins were stored at −80 degree for binding assay (storage buffer: 20 mM Tris pH 8.0, 200 mM NaCl, 10% glycerol, 1 mM DTT).
(§5) The plate was incubated at 37° C. on a shaker at 300 rpm for 10 minutes and then put on ice for 20 minutes. […] The bottom of the filter plate was sealed and 50 μL of MicroScint-20 (PerkinElmer) cocktail was added to each well. ^3H-PDBu trapped in each well was counted using PerkinElmer MicroBeta2 Reader. Data were analyzed using GraphPad Prism5 with the model “log(inhibitor) vs. response-variable slope” to fit the IC50, and then IC50 was transformed to Ki using Cheng-Prusoff equation: Ki=IC50/(1+added radio ligand/Kd). Kd is the binding affinity of each protein preparation to ^3H-PDBu, determined experimentally.

A549 cell line = assay: Proliferation of A549 (CellTiter Glo); type: cell-based; conditions: Homo sapiens, A549, 96 h, read-out: IC50 μM (A549 Cell Line)
Method: as §1

HL-60 (Leukemia) = assay: Proliferation of HL-60; type: cell-based
Method: as §1, §2

Mino (Lymphoma) = assay: Proliferation of Mino; type: cell-based
Method: as §1, §2

[1] = system: NFκB-driven transcription in HeLa-NFκB luciferase reporter cell line; assay: NFκB luciferase reporter assay; conditions: Homo sapiens, HeLa, 16 h, read-out: NFκB-luc HeLa cells EC50 (μM)
C1b domain of human PKCδ = molecular target: T2, C1b domain of human PKCδ (Homo sapiens, UniProt Q05655); assay: biochemical; type: binding; conditions: 3H-PDBu competition
T2 construct: Genes encoding C1b domains of human PKCα, δ, ε, θ, and PKD1 (PKCμ) were synthesized; made in house; host or cells: E. coli BL21(DE3)
T2 sequence (Q05655 230-280 limits assumed): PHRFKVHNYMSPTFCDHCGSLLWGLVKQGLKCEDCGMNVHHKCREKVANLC
Method: as §3, §4, §5

[2] = molecular target: T3, C1b domain of human PKD1 (PKCμ) (Homo sapiens, UniProt Q15139); assay: Competitive 3H-PDBu binding assay, C1b domain of PKD1 (PKCμ); conditions: 3H-PDBu competition
T3 construct: Genes encoding C1b domains of human PKCα, δ, ε, θ, and PKD1 (PKCμ) were synthesized; made in house; host or cells: E. coli BL21(DE3)
T3 sequence (Q15139 270-320 limits assumed): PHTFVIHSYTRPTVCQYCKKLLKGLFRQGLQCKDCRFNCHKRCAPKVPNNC
Method: as §3, §4, §5

Structure (SMILES) | IC50 (A549 cell line) | pKi (C1b domain of human PKCδ) | pKi [2] | other results
CC1=C[C@H]2[C@@]3(O)[C@H](C)C[C@]4(OC(=O)[C@@H](N)C(C)(C)c5ccc(C(F)(F)F)cc5)[C@H]([C@@H]3C=C(CO)C[C@]2(O)C1=O)C4(C)C | 0.03 to 0.06 µM |  |  | ratio (IC50 of K101)/(IC50 of compound) Namalwa (Namalwa (Lymphoma)): 3.5; pIC50 (Namalwa (Lymphoma); read-out: IC50 Namalwa (Lymphoma)): 7.52 to 8.00; Relative wound healing to control (%) (Hela cells; 20 nM): 213%; Relative wound healing to control (%) (Hela cells; 60 nM): 134%; Relative wound healing to control (%) (Hela cells; 200 nM): 201%; pKi (C1b domain of human PKCε): 7.52 to 8.00; ratio (IC50 of K101)/(IC50 of compound) HL-60 (HL-60 (Leukemia)): 12; pIC50 (HL-60 (Leukemia); Homo sapiens, HL-60, read-out: IC50 HL-60 (Leukemia)): 7.52 to 8.00; ratio (IC50 of K101)/(IC50 of compound) Mino (Mino (Lymphoma)): 15.7; pIC50 (Mino (Lymphoma); Homo sapiens, MINO, read-out: IC50 Mino (Lymphoma)): 8.00 to 9.00; EC50 [1]: 0.06 to 0.1 µM
CC1=C[C@H]2[C@@]3(O)[C@H](C)C[C@]4(OC(=O)C[C@@H](N)CCc5ccccc5)[C@H]([C@@H]3C=C(CO)C[C@]2(O)C1=O)C4(C)C | 0.6 to 1 µM | 7.52 to 8.00 |  | 
CC1=C[C@H]2[C@@]3(O)[C@H](C)C[C@]4(OC(=O)[C@H](N)CCCc5ccccc5)[C@H]([C@@H]3C=C(CO)C[C@]2(O)C1=O)C4(C)C | 0.2 to 0.6 µM |  | 7.52 to 8.00 | 
CC1=C[C@H]2[C@@]3(O)[C@H](C)C[C@]4(OC(=O)[C@@H](O)Cc5ccccc5)[C@H]([C@@H]3C=C(CO)C[C@]2(O)C1=O)C4(C)C | 0.2 to 0.6 µM |  | 7.52 to 8.00 | 
CC1=C[C@H]2[C@@]3(O)[C@H](C)C[C@]4(OC(=O)[C@H](N)CCc5ccc(C(F)(F)F)cc5)[C@H]([C@@H]3C=C(CO)C[C@]2(O)C1=O)C4(C)C | 0.2 to 0.6 µM |  | 7.52 to 8.00 | 
CC1=C[C@H]2[C@@]3(O)[C@H](C)C[C@]4(OC(=O)C[C@H](N)Cc5ccccc5)[C@H]([C@@H]3C=C(CO)C[C@]2(O)C1=O)C4(C)C | 1 to 2 µM | 7.52 to 8.00 |  | 
CC1=C[C@H]2[C@@]3(O)[C@H](C)C[C@]4(OC(=O)[C@H](N)CCCCCCc5ccc(C(F)(F)F)cc5)[C@H]([C@@H]3C=C(CO)C[C@]2(O)C1=O)C4(C)C | 0.06 to 0.1 µM |  | 7.52 to 8.00 | pKi (C1b domain of human PKCε): 7.00 to 7.22
CC1=C[C@H]2[C@@]3(O)[C@H](C)C[C@]4(OC(=O)[C@@H](N)CCCCCCCCc5ccccc5)[C@H]([C@@H]3C=C(CO)C[C@]2(O)C1=O)C4(C)C | 0.001 to 0.01 µM | 7.52 to 8.00 |  | 
CN[C@@H](CC1CCCCC1)C(=O)O[C@@]12C[C@@H](C)[C@@]3(O)[C@@H](C=C(CO)C[C@]4(O)C(=O)C(C)=C[C@@H]34)[C@@H]1C2(C)C | 0.2 to 0.6 µM | 7.52 to 8.00 |  | 
CC1=C[C@H]2[C@@]3(O)[C@H](C)C[C@]4(OC(=O)[C@H](N)CCCCCCc5ccc(C(F)F)cc5)[C@H]([C@@H]3C=C(CO)C[C@]2(O)C1=O)C4(C)C | 0.1 to 0.2 µM | 7.52 to 8.00 | 7.52 to 8.00 | 

From patent publication US20240197666A1, “DITERPENOID COMPOUNDS THAT ACT ON PROTEIN KINASE C (PKC)” (K-Gen Therapeutics, Inc., priority 2021, published 2024)
